Results published in BindingDB's records for patent US12473304 (Bristol-Myers Squibb, 2025).

Each molecule was assayed against Protein-arginine deiminase type-4 (Homo sapiens, UniProt Q9UM07) (assay: RFMS Human PAD4 Functional Assay 1).
Protocol: Reaction volume: 26 μlAssay buffer: 25 mM hepes, pH 7.5, 5 mM NaCl, 1 mM DTT, 0.2 mg/ml BSA, 0.01% CHAPS, 50 μM Calcium, and 5 μM TPENFinal concentrations: 5 nM hPAD4 enzyme, 250 μM BASE, and 0.5% DMSOTotal incubation time: 30 mins compound and enzyme preincubation at 37° C., 90 min enzyme/substrate reaction, 30 min reaction with phenyl glyoxal at 37° C.Stop solution: 40 μl 5% TCA in ACN0.13 μL of compound solution was added to 13 μL of 10 nM PAD4 in assay buffer. After 30 min 13 μl of 500 μM of BAEE was added in 25 mM hepes, pH 7.5, 5 mM NaCl, 1 mM DTT, 0.2 mg/ml BSA, 0.01% CHAPS, 50 μM Calcium, 5 μM TPEN was added and the reaction incubated for 90 min at 37° C. The enzymatic reaction was quenched by addition of 15 μl of 6.1N TCA, 100% Final Concentration is 20%, 35 μl of 8.5 mM phenyl glyoxal (final concentration 4 mM) is then added and the reaction is incubated for 30 min at 37° C.After 30 minutes the plates are spun down to remove all precipitate. The enzyme reaction was quenched with an equal volume of methanol containing internal standard (modified citrulline). Samples were loaded onto the Rapid Fire RF300 system (Agilent) wherein they were first sipped for 1000 ms and then directly loaded to a C18 separations cartridge using a mixture of acetonitrile containing 0.01% formic acid for 3000 ms desalting. The flow rate of the mobile phase was 1.5 ml/min. Once the samples were eluted from the cartridge, a mobile phase of acetonitrile containing 0.01% formic acid was used to move the samples into the mass spectrometer for 4000 ms at a flow rate of 1.25 ml/min/Sciex API5500 triple quadrupole mass spectrometer (Applied Biosystems) equipped with ESI was used to analyze the peptidyl citrulline and internal standard ions.

Protein-arginine deiminase type-4, sequence (Q9UM07 whole entry): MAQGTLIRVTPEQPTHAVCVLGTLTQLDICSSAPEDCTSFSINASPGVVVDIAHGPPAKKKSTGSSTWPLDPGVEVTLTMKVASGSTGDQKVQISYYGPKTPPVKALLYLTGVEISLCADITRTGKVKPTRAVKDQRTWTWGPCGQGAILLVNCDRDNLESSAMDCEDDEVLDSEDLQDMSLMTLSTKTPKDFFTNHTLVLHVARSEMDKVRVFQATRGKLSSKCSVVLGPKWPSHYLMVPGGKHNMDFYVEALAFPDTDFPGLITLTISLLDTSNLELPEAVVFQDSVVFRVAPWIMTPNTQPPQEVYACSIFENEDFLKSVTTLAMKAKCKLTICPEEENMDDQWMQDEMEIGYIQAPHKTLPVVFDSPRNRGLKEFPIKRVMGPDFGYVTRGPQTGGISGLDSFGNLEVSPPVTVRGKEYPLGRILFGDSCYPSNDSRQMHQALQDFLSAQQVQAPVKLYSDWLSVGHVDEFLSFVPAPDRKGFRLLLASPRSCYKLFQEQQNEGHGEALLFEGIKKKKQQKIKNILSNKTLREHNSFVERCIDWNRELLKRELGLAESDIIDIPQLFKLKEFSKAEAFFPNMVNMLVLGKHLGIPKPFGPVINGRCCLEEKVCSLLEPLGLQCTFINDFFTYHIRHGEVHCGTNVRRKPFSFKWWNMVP

IC50	SMILES
140 nM	COc1cc(C(=O)N2CCC[C@@H](N)C2)cn2nc(-c3cc4ccc(-c5cc(F)c(C(N)=O)cc5C)nc4n3CC3CC3)c(C)c12 [US12473304, Example 208]
150 nM	COc1cc(C(=O)N2C[C@H](N)C[C@@H](F)C2)cn2nc(-c3cc4ccc(-c5cc(F)c(C(N)=O)cc5C)nc4n3CC3CC3)c(C)c12 [US12473304, Example 207]
526 nM	COc1cc(C(=O)N2C[C@H](N)C[C@@H](F)C2)cn2nc(-c3cc4ccc(Cl)nc4n3CC3CC3)c(C)c12 [US12473304, Example 15]
30 nM	COc1cc(C(=O)N2CC3CCC2[C@@H]3N)cn2nc(-c3cc4ccc(C(C)(C)O)cc4n3CC3CC3)c(C)c12 (stereo not given in full) [US12473304, Example 97]
55 nM	Cc1c(-c2cc3ccc(-c4ccc5c(c4)CNC5=O)nc3n2CC2CC2)nn2cc(C(=O)N3CC4CCC3[C@@H]4N)ccc12 (stereo not given in full) [US12473304, Example 64]
